Test results from patent US20260015311A1, “AMINO LIPID COMPOUND, PREPARATION METHOD THEREFOR, AND USE THEREOF” (SHENZHEN SHENXIN BIOTECHNOLOGY CO., LTD., priority 2022, published 2026).
Read-outs that look alike come from different tables or passages of the source.

Legend:
[1] = test system: liver; assay: Targeting assay, fluorescence in liver after intramuscular injection; assay type: in vivo, mice; details: 15 μg mRNA per animal, 6 h after injection, dissected liver
Description: The lipids were mixed with DSPC, CHO-HP, M-DMG2000 (i.e. PEG2000-DMG) in a molar ratio of 50:10:38.5:1.5 and dissolved in absolute ethanol. mRNA was dissolved in a sodium acetate solution (0.2M, pH=5.0). The samples of various prescriptions were prepared at a water phase:alcohol phase=9 ml/min: 3 ml/min by using a microfluidic equipment (MPE-L2) and a chip (SN.000035). The two phases were mixed by injecting them into the microfluidic chip according to the interface requirements, and then the drug solution was loaded into a 100KD dialysis bags, immersed in a beaker containing 1 L dialysis solution and wrapped with aluminum foil, and dialyzed at 100 rpm for 1 h at room temperature, and then the dialysis solution was replaced and the dialysis continued for 1 h.
Formulation of dialysis solution: 1×PBS+8% sucrose solution: 2 packets of 1×PBS powder were taken into a beaker, dissolved with 2 L DEPC water, added with 160 g of sucrose additionally, and mixed to obtain the 1×PBS+8% sucrose solution.
The mass ratio of mRNA:Lipids in the obtained lipid nanoparticles were about 1:10.
Fluorescent protein-encoding mRNA-LNP preparations containing Compound (I-6-II), MC3 or SM102, respectively were prepared by using the formulation method of mRNA lipid nanoparticle (LNP) preparations as described above, selecting a fluorescent protein-encoding mRNA as the mRNA and the compound (I-6-II), MC3 or SM102, respectively as the lipid.
Each preparation to be tested was administered to mice by intramuscular injection, with each animal receiving 15 μg mRNA preparation sample. 6 h after sample injection, the mice were anesthetized by isoflurane inhalation, and injected intraperitoneally with 200 μL of D-Luciferin (concentration 10 mg/ml) luciferase development substrate. […] After development of living imaging of the intramuscularly injected animals, they were immediately dissected, followed by observation of the fluorescence in the liver immediately after the dissection.

[2] = Toxicokinetic, plasma concentration of compound I-6-II after empty liposome preparation; assay type: in vivo, cynomolgus monkeys; details: for half-life / AUC(0-t) / Cmax / Tmax: cynomolgus monkey, plasma, intramuscular
Description: 1.9078 g of Compound I-6-II, 0.3985 g of DSPC, 0.7575 g of CHO-HP and 0.1972 g of PEG-DMG (average molecular weight of 2000) were weighed in the molar ratio of 49.5:10:39:1.5, dissolved in absolute ethanol and diluted to 237.5 mL to obtain an alcohol phase. The alcohol phase was mixed and encapsulated by using a microfluidic device (MPE-L^2), with an acetic acid-sodium acetate buffer (0.2 mol/L, pH=5) as the aqueous phase, and a volume ratio of aqueous phase:alcohol phase of 3:1. […]
The animal experiment was set up with a total of 5 groups (5 animals/gender/group), and the groups and the dosages thereof were as follows: negative control group (0 μg compound I-6-II/animal), empty liposome low-dosage group (300 μg compound I-6-II/animal) and empty liposome high-dosage group (1200 μg compound I-6-II/animal). The animals in each group were administered intramuscularly once every 2 weeks for a total of 3 times, i.e., administered on D1, D15 and D29.
Blood samples were collected from animals before and 4 h after the first (D1) and the last (D29) administration in the negative control group; and Blood samples were collected from animals before and 15 min, 1 h, 2 h, 4 h, 8 h, 24 h, 32 h and 48 h after the first (D1) and the last (D29) administration in the empty liposome group. The plasma concentration of compound I-6-II in cynomolgus monkeys was detected to investigate the exposure of compound I-6-II in cynomolgus monkeys after administration in each group of animals.
The main TK parameters of compound I-6-II in animals of the empty liposome low- and high-dosage groups after the first administration (D1) and the last administration (D29) are as shown in Table 7 below.

[3] = test system: SD rats; details: Covid-19 S protein mRNA-LNP, 100 μg mRNA/animal, intramuscular once a week for 3 weeks, versus ALC-0315 and SM-102, FIG. 9
[4] = female, im, 300 ug, empty liposome low-dosage group (300 μg compound I-6-II/animal), D 1, female, Mean
[5] = female, im, 300 ug, empty liposome low-dosage group (300 μg compound I-6-II/animal), D 29, female, Mean
[6] = female, im, 1200 ug, empty liposome high-dosage group (1200 μg compound I-6-II/animal), D 1, female, Mean
[7] = female, im, 1200 ug, empty liposome high-dosage group (1200 μg compound I-6-II/animal), D 29, female, Mean
[8] = male, im, 300 ug, empty liposome low-dosage group (300 μg compound I-6-II/animal), D 1, male, Mean
[9] = male, im, 300 ug, empty liposome low-dosage group (300 μg compound I-6-II/animal), D 29, male, Mean
[10] = male, im, 1200 ug, empty liposome high-dosage group (1200 μg compound I-6-II/animal), D 1, male, Mean
[11] = male, im, 1200 ug, empty liposome high-dosage group (1200 μg compound I-6-II/animal), D 29, male, Mean

SMILES: CCCCCCCCCOC(=O)CCCCCCCN(CCCCCCCC(=O)OC(CCCCCCCC)CCCCCCCC)[C@@H]1CCC[C@H](O)C1 [Compound (I-6-II)]
- fluorescence intensity in liver [1]: 2.49E+05
- accumulation ([2]; after 4 weeks of continuous administration (3 times in total), cynomolgus monkeys): did not accumulate
- half-life ([2]; both sexes, cynomolgus monkeys, over the empty liposome groups, read-out: plasma half-life): 4.68 to 6.45 h
- AUC(0-t) [2, 4]: 838 ng·h/mL
- Cmax [2, 4]: 79.1 ng/mL
- Tmax [2, 4]: 3.2 h
- half-life ([2]; female, im, 300 ug, empty liposome low-dosage group (300 μg compound I-6-II/animal), D 1, female, Mean, read-out: t1/2 (converted)): 5.28 h
- AUC(0-t) [2, 5]: 783 ng·h/mL
- Cmax [2, 5]: 59.3 ng/mL
- Tmax [2, 5]: 6 h
- half-life ([2]; female, im, 300 ug, empty liposome low-dosage group (300 μg compound I-6-II/animal), D 29, female, Mean, read-out: t1/2 (converted)): 3.58 h
- AUC(0-t) [2, 6]: 4570 ng·h/mL
- Cmax [2, 6]: 334 ng/mL
- Tmax [2, 6]: 5 h
- half-life ([2]; female, im, 1200 ug, empty liposome high-dosage group (1200 μg compound I-6-II/animal), D 1, female, Mean, read-out: t1/2 (converted)): 5.07 h
- AUC(0-t) [2, 7]: 3090 ng·h/mL
- Cmax [2, 7]: 194 ng/mL
- Tmax [2, 7]: 8 h
- half-life ([2]; female, im, 1200 ug, empty liposome high-dosage group (1200 μg compound I-6-II/animal), D 29, female, Mean, read-out: t1/2 (converted)): 5.29 h
- AUC(0-t) [2, 8]: 652 ng·h/mL
- Cmax [2, 8]: 50.6 ng/mL
- Tmax [2, 8]: 4.8 h
- half-life ([2]; male, im, 300 ug, empty liposome low-dosage group (300 μg compound I-6-II/animal), D 1, male, Mean, read-out: t1/2 (converted)): 5.1 h
- AUC(0-t) [2, 9]: 623 ng·h/mL
- Cmax [2, 9]: 42.4 ng/mL
- Tmax [2, 9]: 7.2 h
- half-life ([2]; male, im, 300 ug, empty liposome low-dosage group (300 μg compound I-6-II/animal), D 29, male, Mean, read-out: t1/2 (converted)): 5.59 h
- AUC(0-t) [2, 10]: 2240 ng·h/mL
- Cmax [2, 10]: 198 ng/mL
- Tmax [2, 10]: 3.2 h
- half-life ([2]; male, im, 1200 ug, empty liposome high-dosage group (1200 μg compound I-6-II/animal), D 1, male, Mean, read-out: t1/2 (converted)): 6.07 h
- AUC(0-t) [2, 11]: 2280 ng·h/mL
- Cmax [2, 11]: 146 ng/mL
- Tmax [2, 11]: 8 h
- half-life ([2]; male, im, 1200 ug, empty liposome high-dosage group (1200 μg compound I-6-II/animal), D 29, male, Mean, read-out: t1/2 (converted)): 6.45 h
- moderate claudication [3]: significantly reduced or decreased
- severe swelling at the injection site [3]: significantly reduced or decreased
